Laboratory results from US7790171B1, “Antiviral peptides obtained from the tryptophan-rich hydrophobic cluster of the HIV-1 reverse transcriptase” (priority 2000, dated 2010).
Where no end group is shown, it is not given here.

Assays:
CEM cells = test: Toxicity in CEM cells; assay type: cell-based, human
HIV-2 ROD = test: RT activity assay of viral production in HIV-2 ROD-infected CEM cells; assay type: cell-based
Description: (§1) FIG. 1: Effect of different concentrations of MPG/p7 (SEQ ID NO:1) on HIV-1 and HIV-2 in CEM cell cultures. CEM cells exposed to 100 μl of viral suspensions containing 1000×50% tissue culture infective dose (TCID50)/m1 of HIV-1 BRU (left panels) or HIV-2 ROD (right panels). a, HIV-infected cells were cultured in medium alone (white diamonds) or medium supplemented with MPG/p7 at 10^−7 M (black circles), 10^−8 M, (black up triangles), 10^−9 M (black diamonds), and 10^−10 M (black squares). b, As controls, HIV-infected cells were treated with either azidothymidine (AZT: 10^−5 M) (white squares) or peptide MPG/p237 (SEQ ID NO:5) at 10^−6 M (black down triangles). Viral production was monitored by measuring RT activity twice a week post infection. Culture supernatants from virus-free CEM were tested as a control (white circles, FIG. 1b).
(§2) RI activity assay. CEM cells were incubated for 30 mm at 4° C. with 100 μl of stock HIV preparation corresponding to 1000×50% tissue culture infective dose (TCID50)/ml, then cells were washed five times and cultured at 5×10^5 cell/ml in 24-well microplates in the presence or absence of MPG/p7 (at 10^−8 and 10^−7 M) or AZT (AZT was purchased from Boehringer Mannheim, Germany) additive. Viral production was monitored twice a week by measuring reverse transcriptase activity in 1 ml of cell-free supernatant as previously described (39).

[1] = tested on: HIV-1 BRU, RF, SF2, NDK, ELI (clades B and D); test: β-gal activity assay in MAGIC-5 cells, HIV-1 isolates; assay type: cell-based; details: MAGIC5 cells, β-gal activity day 3, X4 and R5/X4 strains
Description: (§3) FIG. 2: Effect of MPG/p7 (SEQ ID NO:1) on replication of different subtypes of HIV-1 and HIV-2 studied using MAGIC5 cells. MAGIC-5 cells were incubated with 50 μl of stock HIV preparation corresponding to 1000×TCID50/ml. a, HIV-1 BRU; b, HIV-1 RF; c, HIV-1 SF2 (FIG. 2.A); d, HIV-1 NDK; e, HIV-1 ELI; f, HIV-2 ROD; g, HIV-2 EHO (FIG. 2.B) in medium alone (lane 2), medium supplemented with AZT (10^−5 M) (lane 3), MPG/p7 at 10^−7 and 10^−8 M (lane 4 and 5 respectively), or MPG/p237 (SEQ ID NO:5) at 10^−6 M (lane 6) additive. After 3 days in culture, 13-gal activity was evaluated in cell lysates by measuring absorbance at 410 nm. β-gal activity in uninfected MAGIC5 cells was measured as control (lane 1). […] The calculated values represent means of duplicate. […]
(§4) β-gal activity assay. […] After 3 days in culture, cells were lysed and β-gal activity was determined by incubating 200 μl of total cellular extracts for 1 hat 37° C. in 1.5 ml buffer containing 80 mM NA2HPO4, 10 mM MgCl2, 1 mM 2 ME and 6 mM o-nitrophenyl β-D-galactopyranoside (ONPG). β-gal activity was evaluated by measuring absorbance at 410 nm.
(§5) The efficiency of MPG/p7 monitored using the previously described MAGIC5 transfectant cells that express surface CD4, CXCR4 and CCR5 receptors and contain a reporter gene under control of an HIV-1 promoter that can be induced upon infection of the cells. […]

[2] = tested on: HIV-2 ROD, EHO (clades A and B); test: β-gal activity assay in MAGIC-5 cells, HIV-2 isolates; assay type: cell-based; details: MAGIC5 cells, β-gal activity day 3
Description: as §3, §4, §5

HIV-1 RTMC = test: β-gal activity assay in MAGIC-5 cells, HIV-1 RTMC; assay type: cell-based
Description: (§6) FIG. 3: Effect of MPG/p7 (SEQ ID NO:1) on replication of reference escape variant viruses. MAGIC-5 cells were incubated with 50 μl of stock HIV preparation corresponding to 1000×TCID50/ml of a, HIV-1 BRU; b, HIV-1 RTMF; c, HIV-1 RTMC; d, HIV-1 74V (FIG. 3.A); e, HIV-1 N119; f, HIV-1 RTMDR1 (FIG. 3.B), in medium alone (lane 2) or medium supplemented with AZT at 10^−5 M, 10^−6 M, 10^−7 M, 10^−8 M, 10^−9 M, and 10^−10 M (lanes 3 to 8 respectively), MPG/p7 at 10^−8 and 10^−7M (lanes 9 and 10), or MPG/p237 at 10^−6M (lane 11) additive. β-gal activity was evaluated on day 3 after virus exposure. β-gal activity in uninfected MAGIC5 cells was measured as control (lane 1). All results have been normalized (see legend of FIG. 2). The calculated values represent means of duplicate. Each figure is representative of at least three independent experiments.
as §4

HIV-1 BRU [3] = test: RT activity assay of viral production in HIV-1 BRU-infected CEM cells; assay type: cell-based
Description: as §1, §2

HIV-1 BRU [4] = details: cited from earlier work
[5] = tested on: HIV-1 RTMF, HIV-1 RTMC, HIV-1 74V, HIV-1 N119 and HIV-1 RTMDR1; test: β-gal activity assay in MAGIC-5 cells, anti-RT drug resistant HIV-1 strains; assay type: cell-based; details: β-gal activity day 3
Description: as §6
as §4, with “nm. […]” for “nm.”

HIV-1 RTMDR1 = test: β-gal activity assay in MAGIC-5 cells, HIV-1 RTMDR1; assay type: cell-based; details: FIG. 3f
Description: as §6, §4

[6] = molecular target: HIV-1 RT dimerization (p66/p51) (Human immunodeficiency virus type 1 group M subtype B, UniProt P03366); details: cited from earlier work

Substance | concentrations without any toxicity in CEM cells (CEM cells) | delay in HIV-2 replication (HIV-2 ROD; 10^−9 M of MPG/p7, CEM cells) [days] | concentrations that strongly delay HIV-2ROD propagation (HIV-2 ROD; RT activity in supernatant, CEM cells) | concentration at which all HIV-1 strains tested were susceptible [1] | concentration at which all HIV-2 strains tested were susceptible [2] | concentration required to inhibit HIV-1 RTMC relative to other viruses (HIV-1 RTMC; FIG. 3c) | concentration required to completely inhibit HIV-1 RTMC (HIV-1 RTMC; data not shown) | effect on HIV-1BRU replication at 10^−9 M (HIV-1 BRU [3]; 10^−9 M, RT activity at the end of culture (day 17), CEM cells) | delay in HIV-1 replication (HIV-1 BRU [3]; 10^−10 M of MPG/p7, CEM cells) [days] | concentration that abolishes the production of viral particles (HIV-1 BRU [3]; HIV-1 BRU-infected cultured CEM cells) | concentrations that totally inhibit HIV-1BRU replication (HIV-1 BRU [3]; RT activity in cell free supernatant, 17 days of incubation, CEM cells) | inhibition of HIV-1BRU replication in CEM cell culture (previously shown) (HIV-1 BRU [4]) | sensitivity of escape mutant viruses to treatment [5] | concentration required to inhibit HIV-1 RTMDR1 relative to other viruses (HIV-1 RTMDR1) | inhibition of HIV-1BRU RT dimerization in vitro (previously shown) [6]
KETWETWWTE [p7, KETWETWWTE] | below 10^−5 M | – | – | – | – | – | – | – | – | – | – | – | – | – | –
MPG/p7: non-covalent complex of peptide p7 (SEQ ID NO:1) with carrier peptide MPG (SEQ ID NO:2) (chain 1 KETWETWWTE; chain 2 GALFLGFLGAAGSTMGAWSQPKSKRKV; also: non-covalent complex of p7 with carrier MPG) | – | 3 | above 10^−7 M | 10^−8 M | 10^−8 M | higher than that required to block the other viruses | 10^−6 M | very slow virus propagation | 3 | 10^−8 M | above 10^−8 M | inhibit | sensitive | higher than that required to block the other viruses | inhibit
